Results reported in publication PMC9687021, “Bactericidal and Anti-Biofilm Activity of the FtsZ Inhibitor C109 against Acinetobacter baumannii” (Antibiotics, 2022).

Target: T1, FtsZ (Acinetobacter baumannii, UniProt A0ABX6CKC9)
T1 construct: full-length (1176 bp ftsZ gene), SUMO tag removed
Experiment: PK/LDH coupled GTPase assay on purified FtsZ; sedimentation polymerization assay
Type: biochemical

T1 sequence (A0ABX6CKC9 entry or part of it): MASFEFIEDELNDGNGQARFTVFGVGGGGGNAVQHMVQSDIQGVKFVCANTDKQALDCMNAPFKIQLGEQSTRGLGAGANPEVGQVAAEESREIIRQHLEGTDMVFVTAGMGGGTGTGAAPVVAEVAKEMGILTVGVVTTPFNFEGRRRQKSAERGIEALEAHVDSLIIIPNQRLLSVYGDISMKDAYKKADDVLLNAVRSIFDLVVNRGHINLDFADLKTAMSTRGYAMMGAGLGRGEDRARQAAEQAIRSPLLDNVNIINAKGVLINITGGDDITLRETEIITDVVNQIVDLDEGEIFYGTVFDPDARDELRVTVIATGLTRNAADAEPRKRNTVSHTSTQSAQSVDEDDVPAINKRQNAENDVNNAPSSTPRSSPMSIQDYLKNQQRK

With `COC(=O)CSc1ccc2nsnc2c1[N+](=O)[O-]` [C109, methyl [(4-nitro-2,1,3-benzothiadiazol-5-yl)thio]acetate] the IC50 was 11.8 µM.
